How the values were obtained:
[1] = Stability of cannabinoid compounds and Vitamin E components in Beverage 1 (AB White) by LCMSMS; format: physicochemical; details: AB White stored at 21-25° C.
[2] = Stability of cannabinoid entourage and Vitamin E components of the powder concentrate by LCMSMS; format: physicochemical; details: for Stability of Plant-Derived Cannabinoid Compounds in Powder Concentrate: powder stored at 21-25° C.
Description: At each time period, 0.05 g of powder was dissolved in 10 ml-15 of ethanol, diluted to fall within the analytical range, and injected into the LCMSMS for analysis.

Structure (SMILES): CCCCCc1cc(O)c2c(c1)OC(C)(C)[C@@H]1CCC(C)=C[C@@H]21 [D9 THC, delta-9-tetrahydrocannabinol, reference compound]
- Stability of Plant-Derived Cannabinoid Compounds in AB White, 21-25° C. ([1]; 29 days): 11.9 µg/mL
- Stability of Plant-Derived Cannabinoid Compounds in AB White, 21-25° C. ([1]; 30 days): 11.9 µg/mL
- Stability of Plant-Derived Cannabinoid Compounds in AB White, 21-25° C. ([1]; 60 days): 11.9 µg/mL
- Stability of Plant-Derived Cannabinoid Compounds in AB White, 21-25° C. ([1]; 90 days): 12.0 µg/mL
- Stability of Plant-Derived Cannabinoid Compounds in AB White, 21-25° C. ([1]; 120 days): 11.7 µg/mL
- Stability of Plant-Derived Cannabinoid Compounds in AB White, 21-25° C. ([1]; 150 days): 11.7 µg/mL
- Stability of Plant-Derived Cannabinoid Compounds in AB White, 21-25° C. ([1]; 180 days): 11.9 µg/mL
- Stability of Plant-Derived Cannabinoid Compounds in AB White, 21-25° C. ([1]; 210 days): 11.4 µg/mL
- Stability of Plant-Derived Cannabinoid Compounds in AB White, 21-25° C. ([1]; 240 days): 11.7 µg/mL
- Stability of Plant-Derived Cannabinoid Compounds in AB White, 21-25° C. ([1]; 270 days): 11.9 µg/mL
- Stability of Plant-Derived Cannabinoid Compounds in AB White, 21-25° C. ([1]; 300 days): 12.0 µg/mL
- Stability of Plant-Derived Cannabinoid Compounds in AB White, 21-25° C. ([1]; 330 days): 11.4 µg/mL
- Stability of Plant-Derived Cannabinoid Compounds in AB White, 21-25° C. ([1]; 360 days): 11.7 µg/mL
- Stability of Plant-Derived Cannabinoid Compounds in AB White, 21-25° C. ([1]; 390 days): 11.4 µg/mL
- Stability of Plant-Derived Cannabinoid Compounds in AB White, 21-25° C. ([1]; 420 days): 11.7 µg/mL
- Stability of Plant-Derived Cannabinoid Compounds in AB White, 21-25° C. ([1]; 450 days): 11.7 µg/mL
- Stability of Plant-Derived Cannabinoid Compounds in AB White, 21-25° C. ([1]; 480 days): 11.2 µg/mL
- Stability of Plant-Derived Cannabinoid Compounds in AB White, 21-25° C. ([1]; 510 days): 11.2 µg/mL
- Stability of Plant-Derived Cannabinoid Compounds in AB White, 21-25° C. ([1]; 540 days): 11.2 µg/mL
- Stability of Plant-Derived Cannabinoid Compounds in AB White, 21-25° C. ([1]; 570 days): 11.2 µg/mL
- stability over the entire period (in words) ([1]; 570 days): high degree of stability
- degradation over the entire period (in words) ([2]; powder concentrate stored at 21-25° C., 570 days): no significant degradation
- Stability of Plant-Derived Cannabinoid Compounds in Powder Concentrate ([2]; 0 days): 2.55 mg/g powder
- Stability of Plant-Derived Cannabinoid Compounds in Powder Concentrate ([2]; 1 days): 2.55 mg/g powder
- Stability of Plant-Derived Cannabinoid Compounds in Powder Concentrate ([2]; 2 days): 2.46 mg/g powder
- Stability of Plant-Derived Cannabinoid Compounds in Powder Concentrate ([2]; 3 days): 2.63 mg/g powder
- Stability of Plant-Derived Cannabinoid Compounds in Powder Concentrate ([2]; 5 days): 2.66 mg/g powder
- Stability of Plant-Derived Cannabinoid Compounds in Powder Concentrate ([2]; 8 days): 2.49 mg/g powder
- Stability of Plant-Derived Cannabinoid Compounds in Powder Concentrate ([2]; 9 days): 2.49 mg/g powder
- Stability of Plant-Derived Cannabinoid Compounds in Powder Concentrate ([2]; 10 days): 2.60 mg/g powder
- Stability of Plant-Derived Cannabinoid Compounds in Powder Concentrate ([2]; 11 days): 2.58 mg/g powder
- Stability of Plant-Derived Cannabinoid Compounds in Powder Concentrate ([2]; 12 days): 2.65 mg/g powder
- Stability of Plant-Derived Cannabinoid Compounds in Powder Concentrate ([2]; 15 days): 2.49 mg/g powder
- Stability of Plant-Derived Cannabinoid Compounds in Powder Concentrate ([2]; 16 days): 2.54 mg/g powder
- Stability of Plant-Derived Cannabinoid Compounds in Powder Concentrate ([2]; 17 days): 2.54 mg/g powder
- Stability of Plant-Derived Cannabinoid Compounds in Powder Concentrate ([2]; 18 days): 2.55 mg/g powder
- Stability of Plant-Derived Cannabinoid Compounds in Powder Concentrate ([2]; 19 days): 2.51 mg/g powder
- Stability of Plant-Derived Cannabinoid Compounds in Powder Concentrate ([2]; 22 days): 2.46 mg/g powder
- Stability of Plant-Derived Cannabinoid Compounds in Powder Concentrate ([2]; 23 days): 2.65 mg/g powder
- Stability of Plant-Derived Cannabinoid Compounds in Powder Concentrate ([2]; 24 days): 2.60 mg/g powder
- Stability of Plant-Derived Cannabinoid Compounds in Powder Concentrate ([2]; 25 days): 2.55 mg/g powder
- Stability of Plant-Derived Cannabinoid Compounds in Powder Concentrate ([2]; 26 days): 2.52 mg/g powder
- Stability of Plant-Derived Cannabinoid Compounds in Powder Concentrate ([2]; 29 days): 2.47 mg/g powder
- Stability of Plant-Derived Cannabinoid Compounds in Powder Concentrate ([2]; 30 days): 2.66 mg/g powder
- Stability of Plant-Derived Cannabinoid Compounds in Powder Concentrate ([2]; 60 days): 2.66 mg/g powder
- Stability of Plant-Derived Cannabinoid Compounds in Powder Concentrate ([2]; 90 days): 2.49 mg/g powder
- Stability of Plant-Derived Cannabinoid Compounds in Powder Concentrate ([2]; 120 days): 2.66 mg/g powder
- Stability of Plant-Derived Cannabinoid Compounds in Powder Concentrate ([2]; 150 days): 2.61 mg/g powder
- Stability of Plant-Derived Cannabinoid Compounds in Powder Concentrate ([2]; 180 days): 2.59 mg/g powder
- Stability of Plant-Derived Cannabinoid Compounds in Powder Concentrate ([2]; 210 days): 2.54 mg/g powder
- Stability of Plant-Derived Cannabinoid Compounds in Powder Concentrate ([2]; 240 days): 2.53 mg/g powder
- Stability of Plant-Derived Cannabinoid Compounds in Powder Concentrate ([2]; 270 days): 2.47 mg/g powder
- Stability of Plant-Derived Cannabinoid Compounds in Powder Concentrate ([2]; 300 days): 2.57 mg/g powder
- Stability of Plant-Derived Cannabinoid Compounds in Powder Concentrate ([2]; 330 days): 2.49 mg/g powder
- Stability of Plant-Derived Cannabinoid Compounds in Powder Concentrate ([2]; 360 days): 2.58 mg/g powder
- Stability of Plant-Derived Cannabinoid Compounds in Powder Concentrate ([2]; 390 days): 2.48 mg/g powder
- Stability of Plant-Derived Cannabinoid Compounds in Powder Concentrate ([2]; 420 days): 2.53 mg/g powder
- Stability of Plant-Derived Cannabinoid Compounds in Powder Concentrate ([2]; 450 days): 2.61 mg/g powder
- Stability of Plant-Derived Cannabinoid Compounds in Powder Concentrate ([2]; 480 days): 2.65 mg/g powder
- Stability of Plant-Derived Cannabinoid Compounds in Powder Concentrate ([2]; 510 days): 2.64 mg/g powder
- Stability of Plant-Derived Cannabinoid Compounds in Powder Concentrate ([2]; 540 days): 2.47 mg/g powder
- Stability of Plant-Derived Cannabinoid Compounds in Powder Concentrate ([2]; 570 days): 2.64 mg/g powder
